Values quoted from earlier work, collected in patent US20060172402A1, “Production of vanillin in microbial cells” (priority 2002, published 2006).

System: tobacco class II COMT
Details: Maury et al., 1999

activity of the enzyme against the substrate	Structure (SMILES)
did have activity	O=Cc1ccc(O)c(O)c1 [3,4-Dihydioxybenzaldehyde, 3,4-dihydroxybenzaldehyde]
no activity	COc1cc(/C=C/C(=O)O)cc(O)c1O [5-OH-Ferulic acid]
no activity	O=C(O)/C=C/c1ccc(O)c(O)c1 [Caffeic acid]
